Test results taken from publication PMC12514245, “Impaired migration and lung invasion of human melanoma by a novel small molecule targeting the transmembrane domain of death receptor p75^NTR” (EMBO Molecular Medicine, 2025).
“And” between values parts separate entries of the source, which are not always exact repeats. Identical values can stand only once.

Legend:
A875 shp75 cells = experiment: Wound healing cell motility assay, A875 shp75; format: cell-based, human; conditions: A875 shp75, 2uM
Description: For wound healing assay, cells were grown until confluency and subjected to a wound across the cell mono-layer. Cells were then incubated with serum-free media either with DMSO or a small molecule (with or without 5 µM Q_VD_poH) and imaged at specific time-points. Cell migration is reflected as fold change in wound area over time.

p75^NTR TMD P253G = biological target: T1, p75^NTR TMD P253G (Homo sapiens, UniProt P08138, P253G); experiment: AraTM assay, P253G mutant p75NTR TMD; format: cell-based; conditions: for GFP/OD630, p75NTR P253G, Mean: N=3
T1 construct: Comparison of wild-type (WT) p75^NTR TMD and I252A, P253G and V254A mutants in the AraTM assay; expressed in transfected cells; host or cells: E. coli AS19 (LPS-negative)
T1 sequence (P08138 251-272 P253G limits assumed): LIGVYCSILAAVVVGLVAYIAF

p75^NTR TMD = biological target: T2, p75^NTR TMD (Homo sapiens, UniProt P08138); experiment: AraTM assay, wild-type p75NTR TMD (GFP/OD630); format: cell-based; conditions: for GFP/OD630, p75, mean / GFP/OD630, p75NTR WT, Mean: N=3; for GFP/OD630, p75NTR WT, n1-n3: WT without drug = 100%; for GFP/OD630, Mean / GFP/OD630, individual replicates: Figure 5B
T2 sequence (P08138 250-275 limits assumed): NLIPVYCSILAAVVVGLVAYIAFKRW

## Oc1ccc(-c2cncc(Nc3ccc(Br)c(Cl)c3)n2)cc1 [Div17E5]
A875 shp75 cells; 0 h, n2
  Wound area (Fold): 0.891 Fold
A875 shp75 cells; 0 h, n3
  Wound area (Fold): 1.054 Fold
A875 shp75 cells; 3 h, Mean
  Wound area (Fold): 0.908 Fold
A875 shp75 cells; 3 h, n1
  Wound area (Fold): 0.882 Fold
A875 shp75 cells; 3 h, n2
  Wound area (Fold): 0.921 Fold
A875 shp75 cells; 3 h, n3
  Wound area (Fold): 0.922 Fold
A875 shp75 cells; 6 h, Mean
  Wound area (Fold): 0.857 Fold
A875 shp75 cells; 6 h, n1
  Wound area (Fold): 0.826 Fold
A875 shp75 cells; 6 h, n2
  Wound area (Fold): 0.869 Fold
A875 shp75 cells; 6 h, n3
  Wound area (Fold): 0.877 Fold
A875 shp75 cells; 9 h, Mean
  Wound area (Fold): 0.836 Fold
A875 shp75 cells; 9 h, n1
  Wound area (Fold): 0.818 Fold
A875 shp75 cells; 9 h, n2
  Wound area (Fold): 0.854 Fold
A875 shp75 cells; 9 h, n3
  Wound area (Fold): 0.836 Fold
A875 shp75 cells; 12 h, Mean
  Wound area (Fold): 0.798 Fold
A875 shp75 cells; 12 h, n1
  Wound area (Fold): 0.793 Fold
A875 shp75 cells; 12 h, n2
  Wound area (Fold): 0.807 Fold
A875 shp75 cells; 12 h, n3
  Wound area (Fold): 0.794 Fold
A875 shp75 cells; 15 h, Mean
  Wound area (Fold): 0.786 Fold
A875 shp75 cells; 15 h, n1
  Wound area (Fold): 0.790 Fold
A875 shp75 cells; 15 h, n2
  Wound area (Fold): 0.776 Fold
A875 shp75 cells; 15 h, n3
  Wound area (Fold): 0.791 Fold
A875 shp75 cells; 18 h, Mean
  Wound area (Fold): 0.750 Fold
A875 shp75 cells; 18 h, n1
  Wound area (Fold): 0.749 Fold
A875 shp75 cells; 18 h, n2
  Wound area (Fold): 0.742 Fold
A875 shp75 cells; 18 h, n3
  Wound area (Fold): 0.760 Fold
A875 shp75 cells; 21 h, Mean
  Wound area (Fold): 0.731 Fold
A875 shp75 cells; 21 h, n1
  Wound area (Fold): 0.738 Fold
A875 shp75 cells; 21 h, n2
  Wound area (Fold): 0.705 Fold
A875 shp75 cells; 21 h, n3
  Wound area (Fold): 0.751 Fold
A875 shp75 cells; 24 h, Mean
  Wound area (Fold): 0.700 Fold
A875 shp75 cells; 24 h, n1
  Wound area (Fold): 0.699 Fold
A875 shp75 cells; 24 h, n2
  Wound area (Fold): 0.661 Fold
A875 shp75 cells; 24 h, n3
  Wound area (Fold): 0.739 Fold
p75^NTR TMD P253G
  effect of Pro253 mutation on compound activity in AraTM assay: had no effect
p75^NTR TMD P253G; Div17E5 7.5 uM
  GFP/OD630, p75NTR P253G, n1-n3: 62% and 68% and 61%
  GFP/OD630, p75NTR P253G, Mean: 64%
p75^NTR TMD P253G; Div17E5 15 uM
  GFP/OD630, p75NTR P253G, n1-n3: 61% and 77% and 66%
  GFP/OD630, p75NTR P253G, Mean: 68%
p75^NTR TMD P253G; Div17E5 20 uM
  GFP/OD630, p75NTR P253G, n1-n3: 59% and 49% and 56%
  GFP/OD630, p75NTR P253G, Mean: 55%
p75^NTR TMD P253G; Div17E5 50 uM
  GFP/OD630, p75NTR P253G, n1-n3: 57% and 56% and 59%
  GFP/OD630, p75NTR P253G, Mean: 57%
p75^NTR TMD; Div17E5 1 μM
  GFP/OD630, p75, single replicates: 95 and 91 and 115
  GFP/OD630, p75, mean: 100
p75^NTR TMD; Div17E5 2.5 μM
  GFP/OD630, p75, single replicates: 82 and 86 and 101
  GFP/OD630, p75, mean: 90
p75^NTR TMD; Div17E5 5 μM
  GFP/OD630, p75, single replicates: 66 and 81 and 88
  GFP/OD630, p75, mean: 78
p75^NTR TMD; Div17E5 7.5 uM
  GFP/OD630, p75NTR WT, Mean: 69%
  GFP/OD630, p75NTR WT, n1-n3: 70% and 62% and 76%
p75^NTR TMD; Div17E5 10 μM
  GFP/OD630, p75, single replicates: 49 and 55 and 68
  GFP/OD630, p75, mean: 57
p75^NTR TMD; Div17E5 15 uM
  GFP/OD630, p75NTR WT, Mean: 61%
  GFP/OD630, p75NTR WT, n1-n3: 62% and 58% and 63%
p75^NTR TMD; Div17E5 20 μM
  GFP/OD630, p75, single replicates: 39 and 55 and 49
  GFP/OD630, p75, mean: 48
p75^NTR TMD; Div17E5 20 uM
  GFP/OD630, p75NTR WT, Mean: 45%
  GFP/OD630, p75NTR WT, n1-n3: 50% and 41% and 44%
p75^NTR TMD; Div17E5 50 μM
  GFP/OD630, p75, single replicates: 33 and 42 and 39
  GFP/OD630, p75, mean: 38
p75^NTR TMD; Div17E5 50 uM
  GFP/OD630, p75NTR WT, Mean: 45%
  GFP/OD630, p75NTR WT, n1-n3: 43% and 46% and 47%
p75^NTR TMD; compound 2 μM
  GFP/OD630, Mean: 0.93
  GFP/OD630, individual replicates: 0.98 and 0.93 and 0.88
p75^NTR TMD; compound 4 μM
  GFP/OD630, Mean: 0.86
  GFP/OD630, individual replicates: 0.83 and 0.92 and 0.82
p75^NTR TMD; compound 6 μM
  GFP/OD630, Mean: 0.82
  GFP/OD630, individual replicates: 0.86 and 0.78 and 0.83
p75^NTR TMD; compound 8 μM
  GFP/OD630, Mean: 0.44
  GFP/OD630, individual replicates: 0.43 and 0.51 and 0.37
p75^NTR TMD; compound 10 μM
  GFP/OD630, Mean: 0.43
  GFP/OD630, individual replicates: 0.41 and 0.48 and 0.40
p75^NTR TMD; dose-response
  IC50: 12 µM
p75^NTR TMD; vs α2β3 integrin and M2 TMDs
  selectivity for the p75NTR TMD as compared to TMDs of two unrelated proteins: good selectivity
